Laboratory results published in PMC12384447, “Effect of a Novel Antidepressant and Anticancer Nuc01 on Depression in Cancer Survivors” (Current Issues in Molecular Biology, 2025).

Molecular target: T1, LSD1 (lysine-specific demethylase 1) (Homo sapiens, UniProt O60341)
T1 construct: gene KDM1A; residues 172–852
Experiment: TR-FRET (LANCE) demethylase assay with biotinylated histone H3K4me1 peptide
Assay type: biochemical

CN(C)CC(c1ccc(OC(=O)N(C)CCN(C)C2CC2c2ccccc2)cc1)C1(O)CCCCC1 (stereo not shown) [Nuc01] showed an IC50 of 530 nM.
